Test results published in patent EP4755881A1 (Wuhan Createrna Science and Technology Co., Ltd., priority 2023, dated 2025).

What follows are compounds tested against hLPAR1 (human lysophosphatidic acid receptor 1, Accession No.: NM_001401.4) (Homo sapiens, UniProt Q92633) (assay: cell-based). Details: Table 1; FLIPR method, CHO-K1 cells overexpressing hLPAR1; read-out: LPAR1 inhibitory activity IC50.
Method: The antagonist properties of the compounds in the present disclosure were determined using the FLIPR (Fluorometric Imaging Plate Reader) method in CHO-K1 cells (Chinese Hamster Ovary cells K1, ATCC) overexpressing hLPAR1 (human lysophosphatidic acid receptor 1, Accession No.: NM_001401.4).
CHO-K1 cells stably expressing hLPAR1 were placed in a cell culture incubator at 37°C with 5% CO2 and cultured in F-12 medium containing 10% FBS (fetal bovine serum, Gibco, 10099-141), 1% penicillin-streptomycin (Gibco, 15140-122), and 0.4 mg/mL Hygromycin B (Gibco, 10687010). 18-24 hours before the FLIPR experiment, the cells were seeded into a 96-well plate at a density of 250,000 cells/mL (25,000 cells/well) and incubated overnight in the cell culture incubator. On the day of the experiment, the medium was removed, and the cells were washed with FLIPR buffer (2.5 mM probenecid (Thermo, P36400), 1.3 mM CaCl2, 3.3 mM Na2CO3, 1 mM MgSO4, 20 mM HEPES (Invitrogen, 15630080), 1× HBSS (Invitrogen, 14065056), 0.1% BSA (BioSharp, 70080030)). 75 µL of […] Fluo-4 AM fluorescent dye (Thermo, F14202) was added to each well and incubated for 1.0 hour at 37°C for dye loading. The 96-well plate was then washed once with buffer, and 50 µL of buffer containing the test compound or vehicle was added to each well, followed by incubation at room temperature for 30 min. The cell plate was then placed into the FLIPR for baseline fluorescence measurement (excitation wavelength at 485 nm, emission wavelength at 525 to 535 nm). Subsequently, 50 µL/well of agonist (final concentration 1 µM oleoyl-L-α-lysophosphatidic acid sodium salt (Sigma, L7260)) or vehicle (ultrapure water) was added, and fluorescence values were measured at 1-second intervals for 2 min. Finally, the output fluorescence counts were analyzed using GraphPad Prism 9.0 software log(inhibitor) vs. response--Variable slope (four parameters) equation to calculate IC50 values.
Table 1: Inhibitory activity data of compounds against LPAR1

Chain of hLPAR1 (human lysophosphatidic acid receptor 1, Accession No.: NM_001401.4) (Q92633 whole entry): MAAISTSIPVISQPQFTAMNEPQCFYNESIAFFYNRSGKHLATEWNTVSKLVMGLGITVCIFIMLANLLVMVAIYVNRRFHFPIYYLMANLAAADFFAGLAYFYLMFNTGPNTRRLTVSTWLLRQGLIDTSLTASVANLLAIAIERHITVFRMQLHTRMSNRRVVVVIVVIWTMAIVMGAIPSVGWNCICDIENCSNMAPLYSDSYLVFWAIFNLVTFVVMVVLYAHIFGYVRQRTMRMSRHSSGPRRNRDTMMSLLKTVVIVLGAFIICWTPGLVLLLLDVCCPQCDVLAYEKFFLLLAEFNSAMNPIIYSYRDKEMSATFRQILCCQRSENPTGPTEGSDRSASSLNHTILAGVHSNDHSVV

| IC50 | SMILES |
| --- | --- |
| 55.2 nM | Cc1nc(-c2nnn(C)c2COC(=O)N(C)C2CCCC2)ccc1C#CC1(CC(=O)O)CC1 [compound 018, 2-(1-((6-(5-(((cyclopentyl(methyl)carbamoyl)oxy)methyl)-1-methyl-1H-1,2,3-triazol-4-yl)-2-methylpyridin-3-yl)ethynyl)cyclopropyl)acetic acid] |
| 9.5 nM | Cc1nc(-c2nnn(C)c2NC(=O)O[C@H](C)c2ccccc2)ccc1C#CC1(CC(=O)O)CC1 [compound 022, (R)-2-(1-((2-methyl-6-(1-methyl-5-(((1-phenylethoxy)carbonyl)amino)-1H-1,2,3-triazol-4-yl)pyridin-3-yl)ethynyl)cyclopropyl)acetic acid] |
| 45.2 nM | Cc1nc(-c2nnn(C)c2NC(=O)OC(C)c2cc(F)cnc2Cl)ccc1C#CC1(CC(=O)O)CC1 (stereo not drawn) [compound 023, 2-(1-((6-(5-(((1-(2-chloro-5-fluoropyridin-3-yl)ethoxy)carbonyl)amino)-1-methyl-1H-1,2,3-triazol-4-yl)-2-methylpyridin-3-yl)ethynyl)cyclopropyl)acetic acid] |
| 52.7 nM | Cc1nc(-c2nnn(C)c2COC(=O)N(C)CC2CCC2(F)F)ccc1C#CC1(CC(=O)O)CC1 (stereo not drawn) [compound 026, 2-(1-((6-(5-(((((2,2-difluorocyclobutyl)methyl)(methyl)carbamoyl)oxy)methyl)-1-methyl-1H-1,2,3-triazol-4-yl)-2-methylpyridin-3-yl)ethynyl)cyclopropyl)acetic acid] |
| 219 nM | Cc1nc(-c2nnn(C)c2NC(=O)OC(C)C2CC(F)(F)C2)ccc1C#CC1(CC(=O)O)CC1 (stereo not drawn) [compound 029, 2-(1-((6-(5-(((1-(3,3-difluorocyclobutyl)ethoxy)carbonyl)amino)-1-methyl-1H-1,2,3-triazol-4-yl)-2-methylpyridin-3-yl)ethynyl)cyclopropyl)acetic acid] |
| 33.6 nM | Cc1nc(-c2nnn(C)c2COC(=O)N(C)[C@H](C)C2CC2)ccc1C#CC1(CC(=O)O)CC1 [compound 030, (R)-2-(1-((6-(5-((((1-cyclopropylethyl)(methyl)carbamoyl)oxy)methyl)-1-methyl-1H-1,2,3-triazol-4-yl)-2-methylpyridin-3-yl)ethynyl)cyclopropyl)acetic acid] |
| 52.7 nM | Cc1nc(-c2nnn(C)c2COC(=O)N(C)CCCCF)ccc1C#CC1(CC(=O)O)CC1 [compound 034, 2-(1-((6-(5-((((4-fluorobutyl)(methyl)carbamoyl)oxy)methyl)-1-methyl-1H-1,2,3-triazol-4-yl)-2-methylpyridin-3-yl)ethynyl)cyclopropyl)acetic acid] |
| 103 nM | CCC(F)CN(C)C(=O)OCc1c(-c2ccc(C#CC3(CC(=O)O)CC3)c(C)n2)nnn1C (stereo not drawn) [compound 036, 2-(1-((6-(5-((((2-fluorobutyl)(methyl)carbamoyl)oxy)methyl)-1-methyl-1H-1,2,3-triazol-4-yl)-2-methylpyridin-3-yl)ethynyl)cyclopropyl)acetic acid] |
| 105 nM | Cc1nc(-c2nnn(C)c2COC(=O)N(C)CCC(C)F)ccc1C#CC1(CC(=O)O)CC1 (stereo not drawn) [compound 037, 2-(1-((6-(5-((((3-fluorobutyl)(methyl)carbamoyl)oxy)methyl)-1-methyl-1H-1,2,3-triazol-4-yl)-2-methylpyridin-3-yl)ethynyl)cyclopropyl)acetic acid] |
| 51.1 nM | Cc1nc(-c2nnn(C)c2COC(=O)N(C)CCC(C)(F)F)ccc1C#CC1(CC(=O)O)CC1 [compound 038, 2-(1-((6-(5-((((3,3-difluorobutyl)(methyl)carbamoyl)oxy)methyl)-1-methyl-1H-1,2,3-triazol-4-yl)-2-methylpyridin-3-yl)ethynyl)cyclopropyl)acetic acid] |
| 4.2 nM | Cc1nc(-c2nnn(C)c2COC(=O)N(C)CC2CCCC2)ccc1C#CC1(CC(=O)O)CC1 [compound 039, 2-(1-((6-(5-((((cyclopentylmethyl)(methyl)carbamoyl)oxy)methyl)-1-methyl-1H-1,2,3-triazol-4-yl)-2-methylpyridin-3-yl)ethynyl)cyclopropyl)acetic acid] |
| 129 nM | Cc1nc(-c2nnn(C)c2COC(=O)N(C)CC2CC2(F)F)ccc1C#CC1(CC(=O)O)CC1 (stereo not drawn) [compound 068] |
